Results on seven compounds are retold here after patent US7601726B2, “Substituted pyrazolo[3,4-d]pyrimidines as p38 MAP kinase inhibitors” (Roche Palo Alto LLC, priority 2005, dated 2009).

The structures appear in SMILES notation.

Tested on in the first data set: not given
Test: not given
Conditions: not given
As usually defined, the melting point is the temperature of the solid-liquid transition. With `O=C(Nc1n[nH]c2nc(Oc3ccc(F)cc3F)ncc12)OCc1ccccc1` [Table 1 #42, [6-(2,4-Difluoro-phenoxy)-1H-pyrazolo[3,4-d]pyrimidin-3-yl]-carbamic acid benzyl ester], the melting point is 270.1 to 272 °C.
As for `CCS(=O)(=O)Nc1n[nH]c2nc(Oc3ccc(F)cc3F)ncc12` [Table 1 #14, Ethanesulfonic acid [6-(2,4-difluoro-phenoxy)-1H-pyrazolo[3,4-d]pyrimidin-3-yl]-amide], the melting point is 226 to 226.9 °C.
Consider `OC[C@H](O)COc1cc(Oc2ccc(F)cc2F)cc2[nH]nc(-c3ccccc3Cl)c12` (stereo in doubt) [Table 2 #1, 3-[3-(2-Chloro-phenyl)-6-(2,4-difluoro-phenoxy)-1H-indazol-4-yloxy]-propane-1,2-diol], for which the melting point lay in the range of 93.3 to 94.6 °C.
The compound `O=C(Nc1n[nH]c2nc(Oc3ccc(F)cc3F)ncc12)C1CCCC1` [Table 1 #38, Cyclopentanecarboxylic acid [6-(2,4-difluoro-phenoxy)-1H-pyrazolo[3,4-d]pyrimidin-3-yl]-amide] yielded a melting point of 206.3 to 207.51 °C.
The compound `CC(C)Nc1n[nH]c2nc(Oc3ccc(F)cc3F)ncc12` [Table 1 #1, [6-(2,4-Difluoro-phenoxy)-1H-pyrazolo[3,4-d]pyrimidin-3-yl]-isopropyl-amine] displayed a melting point of 211.3 to 214.4 °C.

For the next data set, the target named is T1, p38 MAP kinase (Homo sapiens, UniProt Q16539).
T1 construct: made in house; host or cells: E. coli (co-expressed with SEK-1 and MEKK)
T1 sequence (Q16539 whole entry): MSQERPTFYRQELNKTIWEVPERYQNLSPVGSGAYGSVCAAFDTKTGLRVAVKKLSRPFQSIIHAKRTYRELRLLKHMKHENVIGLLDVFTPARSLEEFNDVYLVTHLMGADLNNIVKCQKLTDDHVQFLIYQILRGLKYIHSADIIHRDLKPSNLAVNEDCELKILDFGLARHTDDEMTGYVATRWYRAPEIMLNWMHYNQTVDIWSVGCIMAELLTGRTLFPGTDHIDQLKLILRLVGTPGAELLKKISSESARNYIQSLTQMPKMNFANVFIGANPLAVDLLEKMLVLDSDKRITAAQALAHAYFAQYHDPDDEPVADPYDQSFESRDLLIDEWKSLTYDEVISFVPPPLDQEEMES
The experiment in a line: p38 (MAP) kinase in vitro assay (transfer of γ-phosphate from γ-33P-ATP to Myelin Basic Protein). Type of data set: biochemical. Conditions: phosphorylated recombinant p38 MAP kinase, MBP substrate, 30° C. The protocol: This example illustrates a p38 (MAP) kinase in vitro assay useful for evaluating the compounds of the invention.
The p38 MAP kinase inhibitory activity of compounds of this invention in vitro was determined by measuring the transfer of the γ-phosphate from γ-^33P-ATP by p-38 kinase to Myelin Basic Protein (MBP), using a minor modification of the method described in Ahn, et al., J. Biol. Chem. 266:4220-4227 (1991).
The phosphorylated form of the recombinant p38 MAP kinase was co-expressed with SEK-1 and MEKK in E. Coli (see, Khokhlatchev, et al., J. Biol. Chem. 272:11057-11062 (1997)) and then purified by affinity chromatography using a Nickel column.
The phosphorylated p38 MAP kinase was diluted in kinase buffer (20 mM 3-(N-morpholino)propanesulfonic acid, pH 7.2, 25 mM β-glycerol phosphate, 5 mM ethylene glycol-bis(beta-aminoethyl ether)-N,N,N′,N′-tetraacetic acid, 1 mM sodium ortho-vanadate, 1 mM dithiothreitol, 40 mM magnesium chloride). Test compound dissolved in DMSO or only DMSO (control) was added and the samples were incubated for 10 min at 30° C. The kinase reaction was initiated by the addition of a substrate cocktail containing MBP and γ-^33P-ATP. […] The phosphorylated MBP was then separated from the residual γ-^33P-ATP using a phosphocellulose membrane (Millipore, Bedfrod, Mass.) and quantitated using a scintillation counter (Packard, Meriden, Conn.).
One may read the IC50 as the concentration at which inhibition is half-maximal. Take `OC[C@H](O)CNc1cc(Oc2ccc(F)cc2F)cc2[nH]nc(-c3ccccc3Cl)c12` (stereo in doubt) [3-[3-(2-Chloro-phenyl)-6-(2,4-difluoro-phenoxy)-1H-indazol-4-ylamino]-propane-1,2-diol]: the IC50 is about 4 nM.
On to `O=C(Nc1n[nH]c2nc(Oc3ccc(F)cc3F)ncc12)c1ccccc1Br` [2-Bromo-N-[6-(2,4-difluoro-phenoxy)-1H-pyrazolo[3,4-d]pyrimidin-3-yl]-benzamide], for which the half-maximal inhibitory concentration (IC50) was about 16 nM.
